Read-outs that look alike come from different tables or passages of the source.
Biological target: CAAX farnesyltransferase (Rattus norvegicus, UniProt Q02293+Q04631)
Assay: In vitro inhibition of CAAX farnesyltransferase
Type: biochemical
Set-up: purified to homogeneity from rat brain homogenates; from tissue; host or cells: rat brain; alternatively recombinant enzyme from a baculovirus expression system
Settings: Table D
Protocol: All compounds were tested for in vitro inhibition of CAAX protein farnesyltransferase. […] Alternatively, recombinant CAAX protein farnesyltransferase was also used in this assay. […] Seventy-two hrs after infection, the cells were harvested and disrupted and the enzyme isolated by chromatography on Q-Sepharose.
After incubation for 30 min at 37° C., the amount of [3H]famesyl group transferred to p21H-ras was measured by precipitation with SDS/trichloroacetic acid, filtration onto nitrocellulose, and scintillation counting.
Structures of the compounds tested are reproduced below. Compound numbers also refer to example numbers above.

[1] = diastereomer A, read-out: EC50 (μM) "A"
[2] = diastereomer B, read-out: EC50 (μM) "B"

Sequence of CAAX farnesyltransferase (Q02293 whole entry, one chain of several): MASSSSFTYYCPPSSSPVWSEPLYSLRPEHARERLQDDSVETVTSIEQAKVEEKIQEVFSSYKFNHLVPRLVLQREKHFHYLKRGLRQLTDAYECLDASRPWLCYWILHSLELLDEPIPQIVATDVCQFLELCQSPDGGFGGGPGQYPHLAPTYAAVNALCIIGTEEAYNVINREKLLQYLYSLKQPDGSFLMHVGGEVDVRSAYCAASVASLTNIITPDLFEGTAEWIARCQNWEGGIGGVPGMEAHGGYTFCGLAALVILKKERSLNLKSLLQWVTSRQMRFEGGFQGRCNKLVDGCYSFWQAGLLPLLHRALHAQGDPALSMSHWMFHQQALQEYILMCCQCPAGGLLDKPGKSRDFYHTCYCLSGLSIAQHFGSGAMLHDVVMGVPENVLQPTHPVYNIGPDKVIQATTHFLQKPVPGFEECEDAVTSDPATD

Structure (SMILES)	EC50 [1]	EC50 [2]
C[C@@H](O)[C@H](NC(=O)CN1C(=O)C(N(C)C(=O)[C@@H](N)CS)N=C(c2ccccc2)c2ccccc21)C(=O)O (stereo partly drawn) [compound 51, N-[[3-[(2-amino-3-mercapto-1-oxopropyl)methylamino]-2,3-dihydro-2-oxo-5-phenyl-1H-1,4-benzodiazepin-1-yl]acetyl]-L-threonine]	> 3 µM	0.0017 µM
CN(C(=O)[C@@H](N)CS)C1N=C(c2ccccc2)c2ccccc2N(CC(=O)N[C@@H](CCC(N)=O)C(=O)O)C1=O (stereo partly drawn) [compound 52, N-[[3-[(2-amino-3-mercapto-1-oxopropyl)methylamino]-2,3-dihydro-2-oxo-5-phenyl-1H-1,4-benzodiazepin-1-yl]acetyl]-L-glutamine]	> 3 µM	0.0018 µM
CN(C(=O)[C@@H](N)CS)C1N=C(c2ccccc2)c2ccccc2N(CC(=O)NCC(=O)O)C1=O (stereo partly shown) [compound 53, N-[[3-[(2-amino-3-mercapto-1-oxopropyl)methylamino]-2,3-dihydro-2-oxo-5-phenyl-1H-1,4-benzodiazepin-1-yl]acetyl]-glycine]	> 3 µM	0.0004 µM
CN(C(=O)[C@@H](N)CS)C1N=C(c2ccccc2)c2ccccc2N(CC(=O)N[C@@H](Cc2ccc(O)cc2)C(=O)O)C1=O (stereo partly drawn) [compound 54, N-[[3-[(2-amino-3-mercapto-1-oxopropyl)methylamino]-2,3-dihydro-2-oxo-5-phenyl-1H-1,4-benzodiazepin-1-yl]acetyl]-L-tyrosine]	1.5 µM	0.004 µM
CN(C(=O)[C@@H](N)CS)C1N=C(c2ccccc2)c2ccccc2N(CC(=O)N[C@@H](CC2CCCCC2)C(=O)O)C1=O (stereo partly drawn) [compound 57, N-[[3-[(2-amino-3-mercapto-1-oxopropyl)methylamino]-2,3-dihydro-2-oxo-5-phenyl-1H-1,4-benzodiazepin-1-yl]acetyl]-(β-cyclohexyl)-L-alanine]	2 µM	0.0015 µM
CN(C(=O)[C@@H](N)CS)C1N=C(c2ccccc2)c2ccccc2N(CC(=O)N[C@H](C(=O)O)C2CCCCC2)C1=O (stereo partly drawn) [compound 58, N-[[3-[(2-amino-3-mercapto-1-oxopropyl)methylamino]-2,3-dihydro-2-oxo-5-phenyl-1H-1,4-benzodiazepin-1-yl]acetyl]-(α-cyclohexyl)-glycine]	1.1 µM	0.0006 µM
CN(C(=O)[C@@H](N)CS)C1N=C(c2ccccc2)c2ccccc2N(CC(=O)N[C@@H](CCc2ccccc2)C(=O)O)C1=O (stereo partly drawn) [compound 59, N-[[3-[-(2-amino-3-mercapto-1-oxopropyl)methylamino]-2,3-dihydro-2-oxo-5-phenyl-1H-1,4-benzodiazepin-1-yl]acetyl]-L-homo-phenylalanine]	1.1 µM	0.0012 µM
CN(C(=O)[C@@H](N)CS)C1N=C(c2ccccc2)c2ccccc2N(CC(=O)N[C@@H](Cc2ccc(F)cc2)C(=O)O)C1=O (stereo partly shown) [compound 60]	0.94 µM	0.0005 µM
CN(C(=O)[C@@H](N)CS)C1N=C(c2ccccc2)c2ccccc2N(CC(=O)N[C@@H](Cc2ccc(-c3ccccc3)cc2)C(=O)O)C1=O (stereo partly drawn) [compound 61, N-[[3-[(2-amino-3-mercapto-1-oxopropyl)methylamino]-2,3-dihydro-2-oxo-5-phenyl-1H-1,4-benzodiazepin-1-yl]acetyl]-(β-biphenyl)-L-alanine]	1.7 µM	0.0035 µM
CCCC[C@H](NC(=O)CN1C(=O)C(N(C)C(=O)[C@@H](N)CS)N=C(c2ccccc2)c2ccccc21)C(=O)O (stereo partly drawn) [compound 62, N-[[3-[(2-amino-3-mercapto-1-oxopropyl)methylamino]-2,3-dihydro-2-oxo-5-phenyl-1H-1,4benzodiazepin-1-yl]acetyl]-L-norleucine]	0.72 µM	0.0005 µM
CSCC[C@@H](C(=O)O)N(C)C(=O)CN1C(=O)C(NC(=O)[C@@H](N)CS)N=C(c2ccccc2)c2ccccc21 (stereo partly shown) [compound 63]	> 10 µM	2 µM
CSCC[C@@H](C(=O)O)N(C)C(=O)CN1C(=O)C(N(C)C(=O)[C@@H](N)CS)N=C(c2ccccc2)c2ccccc21 (stereo partly drawn) [compound 64, N-[[3-[(2-amino-3-mercapto-1-oxopropyl)methylamino]-2,3-dihydro-2-oxo-5-phenyl-1H-1,4-benzodiazepin-1-yl]acetyl]-(N-methyl)-L-methionine]	0.26 µM	0.002 µM
CN(CC(=O)O)C(=O)CN1C(=O)C(N(C)C(=O)[C@@H](N)CS)N=C(c2ccccc2)c2ccccc21 (stereo partly shown) [compound 65, N-[[3-[(2-amino-3-mercapto-1-oxopropyl)methylamino]-2,3-dihydro-2-oxo-5-phenyl-1H-1,4-benzodiazepin-1-yl]acetyl]-(N-methyl)-glycine]	> 3 µM	0.0038 µM
CN(C(=O)[C@@H](N)CS)C1N=C(c2ccccc2)c2ccccc2N(CC(=O)N(CC(=O)O)Cc2ccccc2)C1=O (stereo partly shown) [compound 66]	2.4 µM	0.0006 µM
CSCC[C@H](NC(=O)CN1C(=O)C(N(C)C(=O)[C@@H](N)CS)N=C(c2ccccc2)c2cc(Cl)ccc21)C(=O)O (stereo partly drawn) [compound 67, N-[[3-[(2-amino-3-mercapto-1-oxopropyl)methylamino]-2,3-dihydro-2-oxo-5-phenyl-7-chloro-1H-1,4-benzodiazepin-1-yl]acetyl]-L-methionine]	0.31 µM	0.0004 µM
CN(C(=O)[C@@H](N)CS)C1N=C(c2ccccc2)c2cc(Cl)ccc2N(CC(=O)N[C@@H](Cc2ccccc2)C(=O)O)C1=O (stereo partly shown) [compound 68]	0.14 µM	0.0016 µM
CN(C(=O)[C@@H](N)CS)C1N=C(c2ccccc2)c2cc(Cl)ccc2N(CC(=O)N[C@@H](Cc2ccccc2)C(N)=O)C1=O (stereo partly drawn) [compound 69, N-[[3-[(2-amino-3-mercapto-1-oxopropyl)methylamino]-2,3-dihydro-2-oxo-5phenyl-7-chloro-1H-1,4-benzodiazepin-1-yl]acetyl]-L-phenylalanine amide]	1.5 µM	0.0036 µM
CN(C(=O)[C@@H](N)CS)C1N=C(c2ccccc2)c2cc(Cl)ccc2N(CC(=O)N[C@@H](Cc2ccc(F)cc2)C(=O)O)C1=O (stereo partly drawn) [compound 70, N-[[3-[(2-amino-3-mercapto-1-oxopropyl)methylamino]-2,3-dihydro-2-oxo-5-phenyl-7-chloro-1H-1,4-benzodiazepin-1-yl]acetyl]-L-4-fluoro-phenylalanine]	0.13 µM	0.0008 µM
CN(C(=O)[C@@H](N)CS)C1N=C(c2ccccc2)c2cc(Cl)ccc2N(CC(=O)N[C@H](C(=O)O)C2CCCCC2)C1=O (stereo partly drawn) [compound 71, N-[[3-[(2-amino-3-mercapto-1-oxopropyl)methylamino]-2,3-dihydro-2-oxo-5-phenyl-7-chloro-1H-1,4-benzodiazepin-1-yl]acetyl]-L-(α-cyclohexyl)-glycine]	0.1 µM	0.0007 µM
CN(C(=O)[C@@H](N)CS)C1N=C(c2ccccc2)c2cc(Cl)ccc2N(CC(=O)N[C@H](C(N)=O)C2CCCCC2)C1=O (stereo partly drawn) [compound 72, N-[[3-[(2-amino-3-mercapto-1-oxopropyl)methylamino]-2,3-dihydro-2-oxo-5-phenyl-7-chloro-1H-1,4-benzodiazepin-1-yl]acetyl]-L-(α-cyclohexyl)-glycine amide]	0.6 µM	0.0017 µM

— patent US5843941A, “Ras farnesyl transferase inhibitors” (Genentech, Inc., priority 1994, dated 1998)
